Columns and labels:
Assay type in all cases: cell-based, human
[1] = test system: WNT/CTNNB1 pathway (LEF/TCF transcription factor reporter); experiment: WNT/CTNNB1 pathway activity reporter assay (TOP/FOPflash); conditions: 24 h
Excerpt: The lymphoid enhancer-binding factor 1 (LEF)/transcription factor (TCF) activity reporter assay, also known as TOP/FOPflash assay (Promega, Madison, Wis.) was previously used to analyze the WNT/CTNNB1 pathway activity in human colon cancer cells (24). It comprises the TOPflash plasmid which contains a hexameric repetition of the LEF/TCF-binding element upstream of a thymidine kinase (TK) promoter and firefly luciferase as reporter gene. The FOPflash plasmid comprised the exact sequence of the TOPflash plasmid, but with point mutated LEF/TCF-binding sites. In the assay, 8×10^4 HCT116 cells were plated in 24-well-plates and were given 15 hours to attach to the bottom of the well. Cells were transfected with TOPflash or FOPflash plasmids using Metafecten according to the manufacturer's instruction 24 hours before they were treated with 1 μM niclosamide or the respective amount of DMSO for another 24 hours. Luciferase activity as read out for LEF/TCF activity and thus WNT/CTNNB1 pathway activity was measured by the Steady Glow™ Luciferase Assay System (Promega) according to the manufacturer's instructions in the luminescence reader SpectraFluor Plus (Tecan) with 1500 milliseconds exposure time and a gain of 150. TOPflash reporter gene expression (representing the WNT pathway activity) was normalized to FOPflash reporter gene expression (representing basal reporter gene expression and transfection efficiency). The average of three independent experiments is given here, whereas each experiment was performed in duplicate.
For WNT pathway analysis the following cells were applied: HCT116 cells (heterozygous for gain-of-function-mutated CTNNB1; wt/mut), HAB-68mut cells (deletion mutant of HCT116, expressing only gain-of-function-mutated CTNNB1: −/mut) and HAB-92 wt cells (deletion mutant of HCT116, expressing only wild-type CTNNB1: wt/−). (A) CTNNB1 genotype dependent effect of niclosamide on LEF/TCF transcription factor reporter gene expression. Cells were treated with 1 μM niclosamide for 24 hours. Reporter gene expression was determined by luciferase activity measurement. For each condition and cell line TOPflash expression was normalized to FOPflash expression. (B) CTNNB1 genotype dependent effect of niclosamide on S100A4 expression. Cells were treated with 1 μM niclosamide for 24 hours. S100A4 expression was analyzed by qRT-PCR and immunoblot. (C) CTNNB1 genotype dependent effect of niclosamide on migration rates. Cells were treated with 1 μM niclosamide for 24 hours and cell migration was determined by Boyden chamber assay. Data represents mean±SE of at least three independent experiments. Differences were analyzed by Student's t test (n.s.; not statistically significant). (D) Nuclear localization of CTNNB1 under niclosamide treatment. Nuclear extracts of HCT116 cells treated with the indicated concentrations of niclosamide for 18 hours were analyzed by immunoblot. (E) Effect of niclosamide on CTNNB1/TCF complex. Nuclear extracts of HCT116 cells treated with the indicated concentrations of niclosamide for 18 hours were analyzed by EMSA for the TCF-binding site of the S100A4 promoter. Supershift was performed by addition of a monoclonal anti-CTNNB1 antibody. (F) Presence of CTNNB1 on the S100A4 promoter under niclosamide treatment. HCT116 cells were treated with 1 μM niclosamide for 18 hours and processed for ChIP assay. Soluble chromatin was immunoprecipitated with a monoclonal anti-CTNNB1 antibody or a nonspecific control IgG antibody. Primers used in PCR amplified a 167 bp fragment of the S100A4 promoter or 149 bp fragment of the FOS promoter. The input verified the integrity of the PCR. […] Data shown are representatives of at least two independent experiments.

HCT116-S100A4 cells = experiment: Wound healing assay (directed migration); conditions: 1 μM daily, 4 days
Description: (§1) For wound healing assay HCT116, SW620, LS174T, SW480 and DLD-1 cells were grown to form 60% confluent monolayers of cells in which a wound of about 300 μm width was inflicted with a sterile pipette tip. The medium was exchanged to remove non-adherent cells and the wounded monolayer was treated with 1 μM niclosamide or the respective amount of DMSO every 24 hours for 4 consecutive days. The progress of wound closure was monitored with microphotographs of 10× magnification taken with the Leica DM IL light microscope (Leica Microsystems) on day 0 and day 4. The wound healing experiment was performed three independent times.
(§2) (A) Cell migration of HCT116-vector and HCT116-S100A4 cells exposed to niclosamide treatment. Cells were treated with 1 μM niclosamide for 24 hours and migration rates were measured with Boyden chamber assay. […] Cells were treated with 1 μM niclosamide for 24 hours and cell invasion was determined by Boyden chamber assay. (C) Directed migration of HCT116-vector and HCT116-S100A4 cells exposed to niclosamide treatment analyzed by wound healing assay. […] Cells were treated daily with 1 μM niclosamide and cell viability was determined with MTT assay. […] (F) Quantification of colonies formed. Number of colonies (of more than 4 cells) was counted and normalized to solvent-treated HCT116-vector cells. […]

HCT116-vector cells = experiment: Wound healing assay (directed migration); conditions: 1 μM daily, 4 days
Description: as §1, §2

## O=C(Nc1ccc([N+](=O)[O-])cc1Cl)c1cc(Cl)ccc1O [niclosamide, 2′,5-dichloro-4′-nitrosalicylanilide]
[1]; HAB-68mut, 1 μM
  WNT pathway activity, mean difference control vs niclosamide: 0.90
[1]; HAB-68mut, 1 μM, control 1.39
  WNT pathway activity (TOPflash normalized to FOPflash), mean: 0.50
[1]; HAB-92 wt, 1 μM
  WNT pathway activity, mean difference control vs niclosamide: 0.15
[1]; HAB-92 wt, 1 μM, control 0.36
  WNT pathway activity (TOPflash normalized to FOPflash), mean: 0.21
[1]; HCT116, 1 μM
  WNT pathway activity, mean difference control vs niclosamide: 0.61
[1]; HCT116, 1 μM, control 1.00
  WNT pathway activity (TOPflash normalized to FOPflash), mean: 0.39
HCT116-S100A4 cells
  wound closure: able to migrate into the wound and close the gap
HCT116-vector cells
  wound closure: impaired

From patent publication US11331290B2, “Niclosamide for the treatment of cancer metastasis” (Max-Delbrück-Centrum für Molekulare Medizin in der …, priority 2011, dated 2022)
